Assay results from the CheMixHub viscosity set.
Values joined by “and” are separate entries in the source; they are usually repeats but may differ in a detail not shown here. Identical values can stand only once. ± gives the uncertainty stated by the source.

Experiment: xn = mol fraction of the nth substance listed
Details: 101.3 kPa

O=[N+]([O-])c1ccccc1 + CCCCC
viscosity (293.15 K, x1 = 0.0998): 0.272 ± 0.002 mPa·s | viscosity (293.15 K, x1 = 0.1994): 0.336 ± 0.003 mPa·s | viscosity (293.15 K, x1 = 0.5984): 0.79 ± 0.005 mPa·s | viscosity (293.15 K, x1 = 0.6995): 0.972 ± 0.006 mPa·s | viscosity (293.15 K, x1 = 0.7997): 1.221 ± 0.007 mPa·s | viscosity (293.15 K, x1 = 0.9): 1.549 ± 0.009 mPa·s | viscosity (297.15 K, x1 = 0.0998): 0.262 ± 0.002 mPa·s | viscosity (297.15 K, x1 = 0.1994): 0.322 ± 0.003 mPa·s | viscosity (297.15 K, x1 = 0.299): 0.42 ± 0.003 mPa·s | viscosity (297.15 K, x1 = 0.3491): 0.52 ± 0.004 mPa·s | viscosity (297.15 K, x1 = 0.399): 0.596 ± 0.004 mPa·s | viscosity (297.15 K, x1 = 0.4589): 0.603 ± 0.004 mPa·s | viscosity (297.15 K, x1 = 0.494): 0.623 ± 0.004 mPa·s | viscosity (297.15 K, x1 = 0.5984): 0.748 ± 0.005 mPa·s | viscosity (297.15 K, x1 = 0.6995): 0.921 ± 0.006 mPa·s | viscosity (297.15 K, x1 = 0.7997): 1.15 ± 0.007 mPa·s | viscosity (297.15 K, x1 = 0.9): 1.452 ± 0.009 mPa·s | viscosity (297.16 K, x1 = 0.383): 0.62 ± 0.15 mPa·s | viscosity (297.17 K, x1 = 0.299): 0.42 ± 0.003 mPa·s | viscosity (297.17 K, x1 = 0.3491): 0.517 ± 0.004 mPa·s | viscosity (297.17 K, x1 = 0.383): 0.619 ± 0.16 mPa·s and 0.617 ± 0.15 mPa·s and 0.61 ± 0.15 mPa·s | viscosity (297.17 K, x1 = 0.3832): 0.614 ± 0.004 mPa·s | viscosity (297.17 K, x1 = 0.399): 0.591 ± 0.004 mPa·s | viscosity (297.17 K, x1 = 0.4589): 0.602 ± 0.004 mPa·s | viscosity (297.17 K, x1 = 0.494): 0.623 ± 0.004 mPa·s | viscosity (297.18 K, x1 = 0.383): 0.604 ± 0.12 mPa·s | viscosity (297.2 K, x1 = 0.383): 0.593 ± 0.1 mPa·s | viscosity (297.23 K, x1 = 0.383): 0.583 ± 0.058 mPa·s | viscosity (297.29 K, x1 = 0.383): 0.565 ± 0.046 mPa·s | viscosity (297.34 K, x1 = 0.383): 0.558 ± 0.025 mPa·s | viscosity (297.44 K, x1 = 0.383): 0.546 ± 0.017 mPa·s | viscosity (297.6 K, x1 = 0.383): 0.535 ± 0.01 mPa·s | viscosity (297.65 K, x1 = 0.0998): 0.261 ± 0.002 mPa·s | viscosity (297.65 K, x1 = 0.1994): 0.321 ± 0.003 mPa·s | viscosity (297.65 K, x1 = 0.299): 0.415 ± 0.003 mPa·s | viscosity (297.65 K, x1 = 0.3491): 0.488 ± 0.004 mPa·s | viscosity (297.65 K, x1 = 0.3832): 0.532 ± 0.004 mPa·s | viscosity (297.65 K, x1 = 0.399): 0.55 ± 0.004 mPa·s | viscosity (297.65 K, x1 = 0.4589): 0.592 ± 0.004 mPa·s | viscosity (297.65 K, x1 = 0.494): 0.616 ± 0.004 mPa·s | viscosity (297.65 K, x1 = 0.5984): 0.743 ± 0.005 mPa·s | viscosity (297.65 K, x1 = 0.6995): 0.915 ± 0.006 mPa·s | viscosity (297.65 K, x1 = 0.7997): 1.142 ± 0.007 mPa·s | viscosity (297.65 K, x1 = 0.9): 1.441 ± 0.009 mPa·s | viscosity (298 K, x1 = 0.383): 0.52 ± 0.006 mPa·s | viscosity (298.15 K, x1 = 0.0998): 0.26 ± 0.002 mPa·s | viscosity (298.15 K, x1 = 0.1994): 0.319 ± 0.003 mPa·s | viscosity (298.15 K, x1 = 0.299): 0.411 ± 0.003 mPa·s | viscosity (298.15 K, x1 = 0.3491): 0.476 ± 0.003 mPa·s | viscosity (298.15 K, x1 = 0.3832): 0.515 ± 0.004 mPa·s | viscosity (298.15 K, x1 = 0.399): 0.536 ± 0.004 mPa·s | viscosity (298.15 K, x1 = 0.4589): 0.584 ± 0.004 mPa·s | viscosity (298.15 K, x1 = 0.494): 0.61 ± 0.004 mPa·s | viscosity (298.15 K, x1 = 0.5984): 0.738 ± 0.005 mPa·s | viscosity (298.15 K, x1 = 0.6995): 0.909 ± 0.006 mPa·s | viscosity (298.15 K, x1 = 0.7997): 1.134 ± 0.007 mPa·s | viscosity (298.15 K, x1 = 0.9): 1.43 ± 0.009 mPa·s | viscosity (298.76 K, x1 = 0.383): 0.504 ± 0.005 mPa·s | viscosity (299.15 K, x1 = 0.0998): 0.257 ± 0.002 mPa·s | viscosity (299.15 K, x1 = 0.1994): 0.316 ± 0.003 mPa·s | viscosity (299.15 K, x1 = 0.299): 0.404 ± 0.003 mPa·s | viscosity (299.15 K, x1 = 0.3491): 0.461 ± 0.003 mPa·s | viscosity (299.15 K, x1 = 0.3832): 0.498 ± 0.004 mPa·s | viscosity (299.15 K, x1 = 0.399): 0.518 ± 0.004 mPa·s | viscosity (299.15 K, x1 = 0.4589): 0.571 ± 0.004 mPa·s | viscosity (299.15 K, x1 = 0.494): 0.6 ± 0.004 mPa·s | viscosity (299.15 K, x1 = 0.5984): 0.729 ± 0.005 mPa·s | viscosity (299.15 K, x1 = 0.6995): 0.897 ± 0.006 mPa·s | viscosity (299.15 K, x1 = 0.7997): 1.118 ± 0.007 mPa·s | viscosity (299.15 K, x1 = 0.9): 1.406 ± 0.008 mPa·s | viscosity (299.88 K, x1 = 0.383): 0.489 ± 0.004 mPa·s | viscosity (302.28 K, x1 = 0.383): 0.466 ± 0.004 mPa·s | viscosity (305.15 K, x1 = 0.0998): 0.245 ± 0.002 mPa·s | viscosity (305.15 K, x1 = 0.1994): 0.298 ± 0.002 mPa·s | viscosity (305.15 K, x1 = 0.299): 0.373 ± 0.003 mPa·s | viscosity (305.15 K, x1 = 0.3491): 0.417 ± 0.003 mPa·s | viscosity (305.15 K, x1 = 0.3832): 0.447 ± 0.003 mPa·s | viscosity (305.15 K, x1 = 0.399): 0.466 ± 0.003 mPa·s | viscosity (305.15 K, x1 = 0.4589): 0.52 ± 0.004 mPa·s | viscosity (305.15 K, x1 = 0.494): 0.551 ± 0.004 mPa·s | viscosity (305.15 K, x1 = 0.5984): 0.677 ± 0.005 mPa·s | viscosity (305.15 K, x1 = 0.6995): 0.831 ± 0.005 mPa·s | viscosity (305.15 K, x1 = 0.7997): 1.031 ± 0.006 mPa·s | viscosity (305.15 K, x1 = 0.9): 1.284 ± 0.008 mPa·s | viscosity (305.99 K, x1 = 0.383): 0.442 ± 0.003 mPa·s | viscosity (313.15 K, x1 = 0.0998): 0.229 ± 0.002 mPa·s | viscosity (313.15 K, x1 = 0.1994): 0.277 ± 0.002 mPa·s | viscosity (313.15 K, x1 = 0.299): 0.342 ± 0.003 mPa·s | viscosity (313.15 K, x1 = 0.3491): 0.38 ± 0.003 mPa·s | viscosity (313.15 K, x1 = 0.3832): 0.403 ± 0.003 mPa·s | viscosity (313.15 K, x1 = 0.399): 0.424 ± 0.003 mPa·s | viscosity (313.15 K, x1 = 0.4589): 0.471 ± 0.003 mPa·s | viscosity (313.15 K, x1 = 0.494): 0.503 ± 0.004 mPa·s | viscosity (313.15 K, x1 = 0.5984): 0.616 ± 0.004 mPa·s | viscosity (313.15 K, x1 = 0.6995): 0.753 ± 0.005 mPa·s | viscosity (313.15 K, x1 = 0.7997): 0.929 ± 0.006 mPa·s | viscosity (313.15 K, x1 = 0.9): 1.143 ± 0.007 mPa·s
